According to PMC8583936, “Machine Learning Assisted Approach for Finding Novel High Activity Agonists of Human Ectopic Olfactory Receptors” (International Journal of Molecular Sciences, 2021):
“And” between values parts separate entries of the source, which are not always exact repeats. Equal entries are not always repeated. Where two headings read alike, the source gives them in different places.

Key:
OR1A1 [1] = target: T1, OR1A1 (Homo sapiens, UniProt Q9P1Q5); experiment: Dual-Glo luciferase reporter gene assay, OR1A1 in Hana3A cells; type: cell-based; set-up: The open reading frames of ORs were amplified using Phusion polymerase; Rho-tag (first 20 amino acids of human rhodopsin) (N); expressed in transfected cells; host or cells: Hana3A cells (derived from HEK293T), pCI vector; co-transfected with human RTP1S, M3 receptor, CRE-Luc and SV40-RL; conditions: for activation of OR1A1 in dose-responses: Figure 4A; for normilazed value = (L-400/R-400): three replicates
T1 sequence (Q9P1Q5 1-309): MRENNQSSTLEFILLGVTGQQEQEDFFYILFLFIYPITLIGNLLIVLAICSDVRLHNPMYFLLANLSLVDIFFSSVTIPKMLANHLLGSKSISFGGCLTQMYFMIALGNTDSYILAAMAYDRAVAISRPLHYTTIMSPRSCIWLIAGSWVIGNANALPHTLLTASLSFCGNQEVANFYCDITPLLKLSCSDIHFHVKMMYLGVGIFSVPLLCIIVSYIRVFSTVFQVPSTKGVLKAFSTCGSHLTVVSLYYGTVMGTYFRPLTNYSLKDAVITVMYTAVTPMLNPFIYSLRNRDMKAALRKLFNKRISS
Method: Hana3A cells were maintained in minimal essential medium containing 10% FBS (vol/vol) with penicillin-streptomycin and amphotericin B (1/200 each vol/vol) at 37 °C and 5% CO2. Hana3A cells are derived from HEK293T [57] and are optimized for OR studies as shown in several studies, compared to earlier OR expression in Sf9 insect cells in Gat et al., and in Xenopus oocytes, COS-7, PC12h and CHO-K1 cells in Katada et al..
The Dual-Glo luciferase assay system (Promega, Madison, WI, USA) was used to evaluate the functionality of wild-type OR1A1 and OR2W1 in an in vitro system. The open reading frames of ORs were amplified using Phusion polymerase (Thermo Fisher Scientific, Waltham, MA, USA). Amplified fragments were cloned into pCI expression vector (Promega, Madison, WI, USA) containing the sequence encoding the first 20 amino acids of human rhodopsin (Rho-tag) at N-terminal. Hana3A cells have been cultured and plated the day before transfection with 6 mL at 1/10 of a 100% confluence 100 mm plate into 96-well plates coated with poly D-lysine. After overnight incubation, the required genes were transfected using, for each plate, 5 ng SV40-RL, 10 ng CRE-Luc, 5 ng human RTP1S [72], 2.5 ng M3 receptor [73] and 5 ng of receptor (OR1A1, OR2W1 or empty vector Rho-pCI) plasmid. After around 18 h of transfection, cells were stimulated during 3.5 h by 25 µL of odorant diluted in CD293 + 1% glutamine + 30 µM CuCl2. Odorants were obtained from Sigma Aldrich (St. Louis, MO, USA) and diluted at 1 M concentration in DMSO as stock solutions. […] The luminescence of Firefly (Luc) and Renilla (Rluc) luciferase, were then sequentially monitored by injecting the corresponding substrate following the supplier’s protocol. The activity in each well was normalized as (Luc-400)/(Rluc-400). The response of the receptor was also normalized to its basal activity as (NLX/NL0)-1 where NL0 is the normalized luminescence value at 0 µM of odorant and NLX the value at X µM. […] Raw results were first analyzed with Excel (Microsoft Corporation, Albuquerque, NM, USA) and dose response curves, max efficacy and EC50 have been determined with GraphPrism 6 software (GraphPad Software, La Jolla, CA, USA). Areas under the curves (AUC) were calculated in Excel by summing all the OR responses at different concentrations for each odorant.

OR1A1 [2] = target: T1, OR1A1; conditions: cited from earlier work
OR2W1 = target: T2, OR2W1 (Homo sapiens, UniProt Q9Y3N9); conditions: cited from earlier work
T2 sequence (Q9Y3N9 1-320): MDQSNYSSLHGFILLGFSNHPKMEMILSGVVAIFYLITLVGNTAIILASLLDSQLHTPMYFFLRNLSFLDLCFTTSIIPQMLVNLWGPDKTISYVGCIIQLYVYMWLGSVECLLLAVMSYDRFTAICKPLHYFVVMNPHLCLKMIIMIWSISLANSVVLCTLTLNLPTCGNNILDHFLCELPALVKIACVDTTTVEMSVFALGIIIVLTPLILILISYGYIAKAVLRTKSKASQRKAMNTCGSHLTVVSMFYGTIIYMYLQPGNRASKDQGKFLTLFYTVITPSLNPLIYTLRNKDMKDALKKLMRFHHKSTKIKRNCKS

[3] = OR1A1, log(agonist) vs. response (three parameters), 95% CI (profile likelihood), normalized (L-400/R-400)
[4] = OR1A1, log[molecule], M = -3.75
[5] = OR1A1, log[molecule], M = -4.25
[6] = OR1A1, log[molecule], M = -4.75
[7] = OR1A1, log[molecule], M = -5.25
[8] = OR1A1, log[molecule], M = -5.75
[9] = Table S1, ref Supplement references [1]-[9] as printed after each odorant name
[10] = Table S2, ref Supplement references [2]-[12] as printed after each odorant name

Molecule	Class (agonist / non-agonist / conflicting info.) for OR1A1 (OR1A1 [2]; [9])	Class (agonist / non-agonist / antagonist / conflicting info.) for OR2W1 (OR2W1; [10])	further results
c1cnc2c(c1)ccc1cccnc12 [1,10-Phenanthroline]	–	–	activation of OR1A1 in dose-responses (OR1A1 [1]): did not activate OR1A1; Bottom (OR1A1 [1]; [3]): 1.108 to 2.224; normilazed value = (L-400/R-400) (OR1A1 [1]; OR1A1, log[molecule], M = -3.5): -5 and -0.03226 and 0.3636; normilazed value = (L-400/R-400) (OR1A1 [1]; [4]): 0.5532 and 0.08791 and 0.1429; normilazed value = (L-400/R-400) (OR1A1 [1]; OR1A1, log[molecule], M = -4): -3.909 and 0.2121 and 0.03846; normilazed value = (L-400/R-400) (OR1A1 [1]; [5]): 1.0814 and 2.077 and 1.521; normilazed value = (L-400/R-400) (OR1A1 [1]; OR1A1, log[molecule], M = -4.5): 1.468 and 1.358 and 1.008; normilazed value = (L-400/R-400) (OR1A1 [1]; [6]): 0.8876 and 1.015 and 1.576; normilazed value = (L-400/R-400) (OR1A1 [1]; OR1A1, log[molecule], M = -5): 1.356 and 1.5085 and 1.392; normilazed value = (L-400/R-400) (OR1A1 [1]; [7]): 1.691 and 1.671 and 2.1214; normilazed value = (L-400/R-400) (OR1A1 [1]; OR1A1, log[molecule], M = -5.5): 1.201 and 1.5718 and 1.847; normilazed value = (L-400/R-400) (OR1A1 [1]; [8]): 1.3268 and 1.745 and 1.5675; normilazed value = (L-400/R-400) (OR1A1 [1]; OR1A1, log[molecule], M = -6): 1.452 and 1.389 and 1.692
C=C(C)[C@H]1CC=C(C)CC1 [Dipentene]	–	–	activation of OR1A1 in dose-responses (OR1A1 [1]): weak activator; Bottom (OR1A1 [1]; [3]): 0.9206 to 2.078; Top (OR1A1 [1]; [3]): 11.22 to 15.68; normilazed value = (L-400/R-400) (OR1A1 [1]; OR1A1, log[molecule], M = -3.5): 15.0728 and 8.79 and 8.6943; normilazed value = (L-400/R-400) (OR1A1 [1]; [4]): 10.4582 and 8.9424 and 9.316; normilazed value = (L-400/R-400) (OR1A1 [1]; OR1A1, log[molecule], M = -4): 8.181 and 7.514 and 8.062; normilazed value = (L-400/R-400) (OR1A1 [1]; [5]): 7.841 and 5.647 and 6.278; normilazed value = (L-400/R-400) (OR1A1 [1]; OR1A1, log[molecule], M = -4.5): 5.494 and 4.914 and 4.401; normilazed value = (L-400/R-400) (OR1A1 [1]; [6]): 3.7707 and 3.641 and 3.368; normilazed value = (L-400/R-400) (OR1A1 [1]; OR1A1, log[molecule], M = -5): 2.7632 and 2.301 and 2.9635; normilazed value = (L-400/R-400) (OR1A1 [1]; [7]): 2.721 and 2.59 and 2.766; normilazed value = (L-400/R-400) (OR1A1 [1]; OR1A1, log[molecule], M = -5.5): 2.326 and 2.0399 and 1.767; normilazed value = (L-400/R-400) (OR1A1 [1]; [8]): 1.87 and 1.732 and 1.479; normilazed value = (L-400/R-400) (OR1A1 [1]; OR1A1, log[molecule], M = -6): 1.6 and 1.531 and 1.2039; EC50 (OR1A1 [1]; OR1A1, three-parameter fit, 95% CI (profile likelihood)): 44.9 to 133 µM; LogEC50 (OR1A1 [1]; OR1A1, three-parameter fit, 95% CI (profile likelihood), log[molecule], M): -4.348 to -3.874
CC1=CCC(C(C)(C)O)CC1 (stereo not shown) [Terpineol]	Conflicting info.	Conflicting info.	–
CC(=O)OC(C)(C)C1CC=C(C)CC1 (stereo not shown) [Terpinyl acetate]	Conflicting info.	Conflicting info.	–
CCC(=O)OC(C)(C)C [Tert-Butyl propionate]	Non-agonist	Non-agonist	–
SCc1cccs1 [Thenyl mercaptan]	Non-agonist	Non-agonist	–
O=C(O)CS [Thioglycolic acid]	Non-agonist	Non-agonist	–
C/C=C/c1ccc(OC)cc1 [Trans-anethole]	Agonist	Agonist	–
Cc1cnc(C)c(C)n1 [Trimethyl pyrazine]	Non-agonist	Non-agonist	–
CCCCC(=O)O [Valeric acid]	Non-agonist	Non-agonist	–
COc1cc(C(=O)O)ccc1O [Vanillic acid]	Non-agonist	Non-agonist	–
COc1cc(C=O)ccc1O [Vanillin]	Non-agonist	Conflicting info.	–
CCCCC/C=C\CCC=O [Z-4-decenal]	Conflicting info.	Non-agonist	–
CC(=O)/C=C/C1=C(C)CCCC1(C)C [Β-ionone]	Non-agonist	Non-agonist	–
CCC1CCC(=O)O1 (stereo not shown) [Γ-caprolactone]	–	–	Class (agonist / non-agonist / conflicting info.) for OR1A1 (OR1A1 [2]): Non-agonist; Class (agonist / non-agonist / antagonist / conflicting info.) for OR2W1 (OR2W1): Non-agonist
(+)-Fenchone	Non-agonist	Non-agonist	–
(+)-alpha-Pinene	Non-agonist	Non-agonist	–
(+)-beta-Pinene	Non-agonist	Non-agonist	–
(-)-Fenchone	Non-agonist	Non-agonist	–
(-)-alpha-Terpineol	Non-agonist	Non-agonist	–
(S)-(-)-citronellol	–	–	Class (agonist / non-agonist / conflicting info.) for OR1A1 (OR1A1 [2]): Agonist; Class (agonist / non-agonist / antagonist / conflicting info.) for OR2W1 (OR2W1): Agonist
(S)-(-)-limonene	agonists	Agonist	–
Caramel furanone	Non-agonist	Non-agonist	–
Coffee difuran	Conflicting info.	Agonist	–
Ethyl 3-methylthiopropionate	Non-agonist	Non-agonist	–
Isoeugenol	–	–	Class (agonist / non-agonist / conflicting info.) for OR1A1 (OR1A1 [2]): Non-agonist; Class (agonist / non-agonist / antagonist / conflicting info.) for OR2W1 (OR2W1): Non-agonist
Laevo-arabinose	Conflicting info.	Non-agonist	–
